# Assay results reported in ChEMBL document CHEMBL5465560, “Selectivity Literature for EUbOPEN Chemogenomic Library” (2024).
# Tests used:
# [1] = biological target: Serine/threonine-protein kinase 38 (Homo sapiens) (UniProt Q15208); test: Selectivity interaction (KinomeScan (DiscoverX)) EUB0001049a STK38; conditions: at 1 µM
# [2] = biological target: T1, Serine/threonine-protein kinase ICK (Homo sapiens) (UniProt Q9UPZ9); test: Selectivity interaction (KinomeScan (DiscoverX)) EUB0000666a ICK; conditions: at 10 µM
# T1 sequence (whole entry): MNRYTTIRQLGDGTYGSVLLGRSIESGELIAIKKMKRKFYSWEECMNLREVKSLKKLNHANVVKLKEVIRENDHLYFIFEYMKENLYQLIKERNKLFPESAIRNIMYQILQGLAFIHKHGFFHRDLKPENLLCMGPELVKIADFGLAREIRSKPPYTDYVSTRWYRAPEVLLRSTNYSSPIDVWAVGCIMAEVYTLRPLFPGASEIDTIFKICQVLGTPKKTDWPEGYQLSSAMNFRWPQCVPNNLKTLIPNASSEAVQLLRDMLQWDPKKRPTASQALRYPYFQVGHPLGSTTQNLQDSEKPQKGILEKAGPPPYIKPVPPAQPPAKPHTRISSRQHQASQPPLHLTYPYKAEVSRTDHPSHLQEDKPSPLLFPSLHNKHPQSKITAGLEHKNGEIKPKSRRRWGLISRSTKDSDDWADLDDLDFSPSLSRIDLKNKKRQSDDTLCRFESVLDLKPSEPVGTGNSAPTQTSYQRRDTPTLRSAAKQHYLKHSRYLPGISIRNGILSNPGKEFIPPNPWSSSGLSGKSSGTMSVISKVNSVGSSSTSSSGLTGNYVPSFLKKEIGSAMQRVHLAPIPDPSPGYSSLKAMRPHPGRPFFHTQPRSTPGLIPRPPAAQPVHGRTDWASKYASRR
# [3] = biological target: Histone acetyltransferase KAT2B (Homo sapiens, UniProt Q92831); test: Selectivity interaction (Bromodomain panel (DSF asssay)) EUB0000270b KAT2B
# [4] = biological target: Serine/threonine-protein kinase SMG1 (Homo sapiens) (UniProt Q96Q15); test: Selectivity interaction (ActivX KiNativ screen (kinase selectivity in THP-1 cell lysates)) EUB0000639a SMG1; format: subcellular; conditions: lysate
# [5] = biological target: Mitogen-activated protein kinase kinase kinase 11 (Homo sapiens) (UniProt Q16584); test: Selectivity interaction (ActivX KiNativ screen (kinase selectivity in THP-1 cell lysates)) EUB0000639a MAP3K11; format: subcellular; conditions: lysate, at 1 µM
# [6] = biological target: Receptor-interacting serine/threonine-protein kinase 2 (Homo sapiens, UniProt O43353); test: Selectivity interaction (KinomeScan (DiscoverX)) EUB0000595a RIPK2; conditions: at 10 µM
# [7] = test system: Tyrosine-protein kinase ABL1 (Homo sapiens), P00519 [Q252H]; test: Selectivity interaction (KinomeScan (DiscoverX)) EUB0000092b ABL1; conditions: at 10 µM
# [8] = biological target: Macrophage colony-stimulating factor 1 receptor (Homo sapiens) (UniProt P07333); conditions: at 10 µM
# [9] = biological target: Interleukin-1 receptor-associated kinase 1 (Homo sapiens) (UniProt P51617); test: Selectivity interaction (ActivX KiNativ screen (ex vivo kinase selectivity in human PBMCs)) EUB0001619a IRAK1; format: cell-based; conditions: PBMC, at 1 µM
# [10] = biological target: Calcium/calmodulin-dependent protein kinase type II subunit alpha (Homo sapiens, UniProt Q9UQM7); test: Selectivity interaction (KinomeScan (DiscoverX)) EUB0001619a CAMK2A; conditions: at 1 µM
# [11] = biological target: RAC-alpha serine/threonine-protein kinase (Homo sapiens, UniProt P31749); test: Selectivity interaction (Upstate Kinase Profiler service (Millipore)) EUB0000056c AKT1; conditions: at 1 µM
# [12] = biological target: T2, Ephrin type-B receptor 2 (Homo sapiens) (UniProt P29323); test: Selectivity interaction (KinomeScan (DiscoverX)) EUB0000655a EPHB2; conditions: at 10 µM
# T2 sequence (whole entry): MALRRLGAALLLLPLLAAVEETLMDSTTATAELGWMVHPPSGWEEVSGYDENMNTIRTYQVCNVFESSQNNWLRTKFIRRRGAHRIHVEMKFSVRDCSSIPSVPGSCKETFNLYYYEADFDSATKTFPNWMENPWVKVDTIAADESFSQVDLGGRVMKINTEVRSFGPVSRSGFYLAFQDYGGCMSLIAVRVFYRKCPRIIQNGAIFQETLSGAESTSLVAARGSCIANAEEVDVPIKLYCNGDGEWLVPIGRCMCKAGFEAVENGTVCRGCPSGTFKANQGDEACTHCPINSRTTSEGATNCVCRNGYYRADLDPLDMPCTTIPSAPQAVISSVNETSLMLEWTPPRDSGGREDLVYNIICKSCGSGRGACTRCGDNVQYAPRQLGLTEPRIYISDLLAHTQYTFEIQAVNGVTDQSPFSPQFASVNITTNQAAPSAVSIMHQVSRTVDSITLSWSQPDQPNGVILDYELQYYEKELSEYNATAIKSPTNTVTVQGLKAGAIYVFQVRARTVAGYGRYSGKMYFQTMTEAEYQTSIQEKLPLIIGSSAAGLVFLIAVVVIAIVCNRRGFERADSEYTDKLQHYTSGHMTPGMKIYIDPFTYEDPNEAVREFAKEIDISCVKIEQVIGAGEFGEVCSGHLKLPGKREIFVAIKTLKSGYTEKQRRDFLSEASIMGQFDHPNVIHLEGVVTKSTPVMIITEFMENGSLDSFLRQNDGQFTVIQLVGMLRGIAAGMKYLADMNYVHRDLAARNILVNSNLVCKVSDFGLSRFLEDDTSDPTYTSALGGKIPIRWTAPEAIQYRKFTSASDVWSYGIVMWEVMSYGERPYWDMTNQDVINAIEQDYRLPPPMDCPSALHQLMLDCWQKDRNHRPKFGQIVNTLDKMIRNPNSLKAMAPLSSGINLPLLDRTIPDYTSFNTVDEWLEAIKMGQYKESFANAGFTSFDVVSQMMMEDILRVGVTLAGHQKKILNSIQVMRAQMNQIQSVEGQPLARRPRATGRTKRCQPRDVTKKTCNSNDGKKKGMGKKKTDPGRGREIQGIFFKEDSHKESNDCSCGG
# [13] = biological target: T3, Serine/threonine-protein kinase PAK 4 (Homo sapiens, UniProt O96013); test: Selectivity interaction (KinomeScan (DiscoverX)) EUB0000655a PAK4; conditions: at 10 µM
# [14] = biological target: Tyrosine-protein kinase Srms (Homo sapiens) (UniProt Q9H3Y6); test: Selectivity interaction (KinomeScan (DiscoverX)) EUB0000695a SRMS; conditions: at 100 nM
# [15] = biological target: Protein kinase C eta type (Homo sapiens) (UniProt P24723); test: Selectivity interaction (ProQinase) EUB0000171b PRKCH
# [16] = biological target: T3, Serine/threonine-protein kinase PAK 4; test: Selectivity interaction (ProQinase) EUB0000171b PAK4
# [17] = biological target: Dual specificity protein kinase CLK2 (Homo sapiens, UniProt P49760); test: Selectivity interaction (ProQinase) EUB0000171b CLK2
# Chain of Serine/threonine-protein kinase SMG1 (Homo sapiens) (Q96Q15 whole entry): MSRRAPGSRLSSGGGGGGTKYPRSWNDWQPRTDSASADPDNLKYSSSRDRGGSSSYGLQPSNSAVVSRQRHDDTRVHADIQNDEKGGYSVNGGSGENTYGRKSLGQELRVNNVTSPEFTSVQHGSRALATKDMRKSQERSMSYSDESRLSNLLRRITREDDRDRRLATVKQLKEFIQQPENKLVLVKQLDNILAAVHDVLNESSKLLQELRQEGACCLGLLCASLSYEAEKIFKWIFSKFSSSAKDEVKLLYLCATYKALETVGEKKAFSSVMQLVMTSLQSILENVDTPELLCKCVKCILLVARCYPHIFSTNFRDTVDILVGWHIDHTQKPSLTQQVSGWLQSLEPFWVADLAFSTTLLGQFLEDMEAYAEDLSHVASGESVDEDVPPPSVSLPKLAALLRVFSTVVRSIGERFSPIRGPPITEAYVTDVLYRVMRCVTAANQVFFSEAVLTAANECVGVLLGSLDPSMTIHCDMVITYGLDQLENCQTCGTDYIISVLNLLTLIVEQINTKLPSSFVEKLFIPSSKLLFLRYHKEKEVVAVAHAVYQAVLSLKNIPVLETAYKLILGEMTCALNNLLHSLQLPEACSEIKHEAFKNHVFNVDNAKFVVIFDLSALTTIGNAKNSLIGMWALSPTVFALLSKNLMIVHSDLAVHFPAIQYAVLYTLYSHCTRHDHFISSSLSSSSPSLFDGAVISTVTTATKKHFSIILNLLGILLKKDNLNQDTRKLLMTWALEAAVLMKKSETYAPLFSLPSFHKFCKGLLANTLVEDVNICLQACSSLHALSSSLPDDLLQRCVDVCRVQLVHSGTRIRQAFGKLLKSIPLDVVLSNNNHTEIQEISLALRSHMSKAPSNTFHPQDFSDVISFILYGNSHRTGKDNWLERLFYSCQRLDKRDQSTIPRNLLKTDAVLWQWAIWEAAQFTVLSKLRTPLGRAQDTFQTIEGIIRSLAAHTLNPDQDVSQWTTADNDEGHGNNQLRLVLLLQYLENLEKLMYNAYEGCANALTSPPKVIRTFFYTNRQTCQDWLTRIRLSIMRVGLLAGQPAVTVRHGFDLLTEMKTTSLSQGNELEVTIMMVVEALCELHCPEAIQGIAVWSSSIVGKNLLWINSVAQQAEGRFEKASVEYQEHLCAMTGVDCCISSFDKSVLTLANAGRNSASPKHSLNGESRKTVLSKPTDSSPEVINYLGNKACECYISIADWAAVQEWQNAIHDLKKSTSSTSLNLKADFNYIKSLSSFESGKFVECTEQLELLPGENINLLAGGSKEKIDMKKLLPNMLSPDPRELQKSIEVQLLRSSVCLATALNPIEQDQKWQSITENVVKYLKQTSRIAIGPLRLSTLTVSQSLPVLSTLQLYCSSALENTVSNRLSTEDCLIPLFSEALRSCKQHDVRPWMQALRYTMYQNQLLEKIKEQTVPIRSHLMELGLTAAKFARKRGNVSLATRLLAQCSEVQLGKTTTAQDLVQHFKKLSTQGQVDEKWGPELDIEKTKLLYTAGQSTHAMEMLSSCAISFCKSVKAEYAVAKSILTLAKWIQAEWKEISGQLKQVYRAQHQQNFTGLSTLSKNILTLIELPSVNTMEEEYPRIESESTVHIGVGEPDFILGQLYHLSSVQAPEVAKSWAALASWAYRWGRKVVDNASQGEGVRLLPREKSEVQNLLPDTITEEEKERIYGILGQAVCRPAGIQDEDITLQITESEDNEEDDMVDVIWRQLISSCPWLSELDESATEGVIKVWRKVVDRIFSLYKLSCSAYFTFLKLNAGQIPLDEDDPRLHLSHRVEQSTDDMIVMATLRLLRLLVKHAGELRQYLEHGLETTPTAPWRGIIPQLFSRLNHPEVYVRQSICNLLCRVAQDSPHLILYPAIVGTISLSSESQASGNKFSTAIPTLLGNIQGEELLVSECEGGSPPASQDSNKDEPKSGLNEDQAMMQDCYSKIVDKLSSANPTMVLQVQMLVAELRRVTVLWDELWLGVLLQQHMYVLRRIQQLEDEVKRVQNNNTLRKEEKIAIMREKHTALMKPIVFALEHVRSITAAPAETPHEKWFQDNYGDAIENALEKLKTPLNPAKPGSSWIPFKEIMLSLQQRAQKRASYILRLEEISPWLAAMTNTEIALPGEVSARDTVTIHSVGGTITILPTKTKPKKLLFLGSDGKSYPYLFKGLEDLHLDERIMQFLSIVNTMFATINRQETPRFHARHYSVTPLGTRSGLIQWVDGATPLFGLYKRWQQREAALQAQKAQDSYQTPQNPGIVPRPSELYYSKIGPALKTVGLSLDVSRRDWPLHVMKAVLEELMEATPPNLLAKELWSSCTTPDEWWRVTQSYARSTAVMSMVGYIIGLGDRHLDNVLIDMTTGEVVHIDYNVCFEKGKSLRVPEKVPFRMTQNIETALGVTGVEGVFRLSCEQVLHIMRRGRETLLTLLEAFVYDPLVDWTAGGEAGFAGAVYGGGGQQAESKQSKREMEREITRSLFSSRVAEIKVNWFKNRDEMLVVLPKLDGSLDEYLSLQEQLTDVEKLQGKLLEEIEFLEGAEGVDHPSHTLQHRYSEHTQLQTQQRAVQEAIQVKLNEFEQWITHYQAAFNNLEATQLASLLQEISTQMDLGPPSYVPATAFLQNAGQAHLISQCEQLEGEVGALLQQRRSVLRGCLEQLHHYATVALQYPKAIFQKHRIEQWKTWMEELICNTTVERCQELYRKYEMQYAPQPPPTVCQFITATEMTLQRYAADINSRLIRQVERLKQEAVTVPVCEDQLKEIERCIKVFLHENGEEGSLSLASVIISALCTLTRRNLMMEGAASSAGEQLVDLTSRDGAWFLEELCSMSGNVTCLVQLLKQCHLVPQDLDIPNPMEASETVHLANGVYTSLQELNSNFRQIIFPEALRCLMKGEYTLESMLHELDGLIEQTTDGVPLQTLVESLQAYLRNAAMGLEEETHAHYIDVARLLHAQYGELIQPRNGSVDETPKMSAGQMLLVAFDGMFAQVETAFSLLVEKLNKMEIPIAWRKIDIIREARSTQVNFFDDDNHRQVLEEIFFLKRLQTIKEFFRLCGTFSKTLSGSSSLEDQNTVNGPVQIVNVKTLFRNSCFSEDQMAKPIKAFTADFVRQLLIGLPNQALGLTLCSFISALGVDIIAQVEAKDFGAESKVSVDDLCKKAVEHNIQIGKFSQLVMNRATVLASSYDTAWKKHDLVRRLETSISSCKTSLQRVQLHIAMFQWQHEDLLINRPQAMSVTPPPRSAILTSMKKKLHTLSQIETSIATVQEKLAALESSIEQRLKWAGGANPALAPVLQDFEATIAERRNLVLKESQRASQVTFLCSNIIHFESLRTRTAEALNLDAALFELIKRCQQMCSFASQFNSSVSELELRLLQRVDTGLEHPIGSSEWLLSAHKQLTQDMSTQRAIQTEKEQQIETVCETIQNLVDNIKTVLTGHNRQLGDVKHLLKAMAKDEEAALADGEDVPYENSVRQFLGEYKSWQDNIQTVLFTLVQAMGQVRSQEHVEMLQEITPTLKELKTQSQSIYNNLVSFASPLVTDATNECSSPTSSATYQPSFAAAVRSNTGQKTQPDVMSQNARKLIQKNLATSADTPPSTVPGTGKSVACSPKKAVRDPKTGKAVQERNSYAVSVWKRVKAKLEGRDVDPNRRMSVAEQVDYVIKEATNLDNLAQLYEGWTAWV
# T3 sequence (O96013 whole entry, looked up): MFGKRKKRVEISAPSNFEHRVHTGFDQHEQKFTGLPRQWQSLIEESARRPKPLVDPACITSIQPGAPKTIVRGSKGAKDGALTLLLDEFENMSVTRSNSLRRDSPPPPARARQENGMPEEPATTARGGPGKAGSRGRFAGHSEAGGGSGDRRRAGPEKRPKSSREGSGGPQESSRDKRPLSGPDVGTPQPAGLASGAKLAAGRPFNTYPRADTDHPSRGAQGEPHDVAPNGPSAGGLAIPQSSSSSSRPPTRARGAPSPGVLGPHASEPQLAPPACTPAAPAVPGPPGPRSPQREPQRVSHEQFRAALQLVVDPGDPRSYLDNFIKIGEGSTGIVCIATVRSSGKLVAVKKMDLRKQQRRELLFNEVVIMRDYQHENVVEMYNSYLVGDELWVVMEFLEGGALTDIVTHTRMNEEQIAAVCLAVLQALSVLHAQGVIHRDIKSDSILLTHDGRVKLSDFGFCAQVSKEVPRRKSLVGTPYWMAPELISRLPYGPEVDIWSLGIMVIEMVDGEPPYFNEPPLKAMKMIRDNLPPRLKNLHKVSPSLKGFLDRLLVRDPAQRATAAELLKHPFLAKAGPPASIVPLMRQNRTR
# Chain of Protein kinase C eta type (Homo sapiens) (P24723 whole entry): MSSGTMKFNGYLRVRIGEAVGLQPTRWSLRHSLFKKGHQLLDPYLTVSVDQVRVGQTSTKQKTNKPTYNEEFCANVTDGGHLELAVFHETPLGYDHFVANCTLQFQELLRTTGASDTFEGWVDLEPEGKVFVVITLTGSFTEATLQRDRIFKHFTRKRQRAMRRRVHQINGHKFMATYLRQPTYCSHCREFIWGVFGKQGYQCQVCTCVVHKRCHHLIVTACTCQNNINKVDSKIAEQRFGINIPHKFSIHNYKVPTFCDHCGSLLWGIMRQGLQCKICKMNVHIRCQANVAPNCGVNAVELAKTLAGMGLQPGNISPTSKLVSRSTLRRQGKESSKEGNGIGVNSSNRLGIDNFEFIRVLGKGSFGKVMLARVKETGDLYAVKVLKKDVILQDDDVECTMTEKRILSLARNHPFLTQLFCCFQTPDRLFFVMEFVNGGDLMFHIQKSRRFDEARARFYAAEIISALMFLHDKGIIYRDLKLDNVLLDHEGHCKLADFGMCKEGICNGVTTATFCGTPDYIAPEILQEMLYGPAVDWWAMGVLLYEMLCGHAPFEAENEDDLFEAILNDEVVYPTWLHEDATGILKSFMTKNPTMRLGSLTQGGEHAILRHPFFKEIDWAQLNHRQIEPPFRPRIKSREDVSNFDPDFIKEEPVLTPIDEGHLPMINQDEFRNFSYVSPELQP
compound,measurement,setting,value
COc1cc(Nc2nc(C)cc(-c3cnn4nc(OC)ccc34)n2)cc(C(F)(F)F)c1,% of control,[1],90%
O=C(NOC[C@H](O)CO)c1ccc(F)c(F)c1Nc1ccc(I)cc1F,% of control,[2],84%
Cc1cc(CN)cc(C)c1-c1ncn(C)c1-c1cncn1C,dTM,[3],-0.88 K
CC[C@@H]1[C@H](F)C(=O)N[C@@H]1COc1nccc2cc(C(N)=O)c(OC)cc12 [ZIMLOVISERTIB],% of inhibition,[4]; at 0.01 µM,7.7%
same,% of inhibition,[4]; at 0.04 µM,1.9%
same,% of inhibition,[4]; at 0.2 µM,6.9%
same,% of inhibition,[4]; at 1 µM,6.1%
same,% of inhibition,[4]; at 5 µM,-13.6%
same,% of inhibition,[5],-22.3%
COCC(=O)NC/C=C/c1ccc2ncnc(Nc3ccc(Oc4ccc(C)nc4)c(C)c3)c2c1 [CP-724714],% of control,[6],26%
CCC(=O)N1CCN(c2ccc(-n3c(=O)ccc4cnc5ccc(-c6cnc7ccccc7c6)cc5c43)cc2C(F)(F)F)CC1,% of control,[7],99%
Cc1cc([C@@H](C)Nc2ccccc2C(=O)O)c2nc(N3CCOCC3)cc(=O)n2c1 [AZD-6482],% of control,[8],94%
N#Cc1cccc(-c2c[nH]c3ncnc(N4CCOCC4)c23)c1,% of inhibition,[9],2%
same,% of control,[10],79%
Cc1ccc(-c2ccc3c(ccc4sc5c(c43)NC[C@@H](C)NC5=O)n2)cn1,% of inhibition,[11],5%
CN(C)CCOc1ccc(-c2nc(-c3ccncc3)c(-c3ccc4c(c3)CC/C4=N\O)[nH]2)cc1,% of control,[12],98%
same,% of control,[13],92%
Cc1cc(F)c(C(=O)Nc2cccc(-c3nncn3C(C)C)n2)cc1-n1cnc(C2CC2)c1,% of control,[14],100%
C=CC(=O)Nc1cccc(C(=O)Nc2ccc(Nc3cc(-c4[nH]c(SC)nc4C)ccn3)cc2)c1,% of control,[15]; at 1 µM,91%
same,% of control,[15]; at 5 µM,78%
same,% of control,[16]; at 1 µM,92%
same,% of control,[16]; at 5 µM,76%
same,% of control,[17]; at 1 µM,81%
same,% of control,[17]; at 5 µM,51%
